Assay [1] deals with IPTD-MSCs and islet cells. Put plainly: TSG6 and VEGF expression in cells cultured under normoxic condition. To be noted: normoxic condition (5% CO2, 21% O2). It counts as cell-based, human. The source says:
(§1) Furthermore, DMOG protected the human islets and MSC from hypoxia by inhibiting Hypoxia-inducible Factor Prolyl Hydroxylase (HIF-Phase) resulted into augmentation of certain transcription factor(s) associated that could be highly beneficial for the islet and cell survival and function. Islets in particular are oxygen sensitive and when oxygen demand exceeds the supply, the HIF pathway is triggered to adapt for hypoxic conditions as a result of inactivation of HIF-Phase, an enzyme that contributes to degradation of HIF-1α. Thus, inhibiting HIF-Phase enzyme activity leads to increased HIF-1α protein in cells. Up-regulation of HIF-1α at transcriptional and translational levels leads to production of erythropoietin (EPO) and other proteins, including glycolytic enzyme, glucose transporter-1 (Glut-1) and vascular endothelial growth factor (VEGF). These factors are important to protect islets from cytokine induced cell death and also potentiate islet function, survival, and proliferation.

In assay [2] the test system is IPTD-MSCs. Put plainly: Quantitative real-time PCR of IPTD-MSCs treated in vitro with TNF-α and DMOG. The following applies: 24 hours; TNF-α 10 ng/ml and/or DMOG 1 mM; compared to control. Type of assay: cell-based, human. On the procedure: Recombinant human TNF-α protein (R&D Systems, Minneapolis, Minn.) was reconstituted in research-grade water (Hospira, Lake Forest, Ill.) to a concentration of 100 ng/mL, aliquoted and stored at −20° C. Dimethyloxallyl glycine (DMOG; Cayman Chemicals, Ann Arbor, Mich.) was dissolved in water to yield a stock solution of 57.1 mM, aliquoted (100 μL) and stored at −80° C. IPTD-MSCs were incubated in T-25 flasks in 5 ml of CMRL-1066 medium supplemented with 5% hPL until ˜50% confluent. Cells were cultured for 24 hours in CMRL 1066 medium, or medium containing 10 ng/ml TNF-α, 1 mM DMOG or 1 mM DMOG and 10 ng/ml TNF-α. Following treatment, cells were collected in 1.7-ml Eppendorf tubes and stored in RLT buffer (Qiagen, Germantown, Md.) at −80° C. for future preparation of cDNA.
The TaqMan Gene Expression Assay system (ThermoFisher Scientific) was used to quantify β-ACTIN, TSG-6, NRF2, and VEGF mRNA levels. Total RNA was extracted using a Qiagen Mini Kit (Cat. No. 51306) and converted into cDNA. Real-time quantitative PCR was run in duplicate on a ViiA™ 7 Real-Time PCR System with a 384-well block (ThermoFisher Scientific). Thermal cycles were programmed for 20 seconds at 95° C. for the initial denaturation, followed by 45 cycles of […] at 95° C. for denaturation, 30 seconds at 60° C. for annealing, 60 seconds at 72° C. for extension, and a final extension at 72° C. for 10 minutes. All PCR runs were performed with negative (water) and positive controls. β-ACTIN was used as an internal control to quantify relative gene expression.

Assay [3] relates to IPTD-MSCs. The experiment in a line: Cytokine assay (Luminex) of supernatants from treated IPTD-MSCs. It counts as cell-based, human. On the procedure:
Supernatants from cells cultured for 24 hours under various conditions (medium alone, or medium plus DMOG, TNF-α, or DMOG+TNF-α) were collected, and cytokine analysis performed using a Luminex assay kit (Bio-Rad, Hercules, Calif.) according to the manufacturer's protocol. The following growth factors/cytokines were measured: VEGF, IL-6, IL-8, MMP-9, MCP-1, MMP-2, IL-4, IL-10 and […]. Sample were measured in duplicate.

Assay [4] relates to Human umbilical vein endothelial cells (HUVECs). The experiment in a line: In vitro angiogenesis assay: endothelial tube formation with IPTD-MSC conditioned media. Type of assay: cell-based. The following applies: 24 hours, media from treated IPTD-MSCs. On the procedure: Angiogenic capacity was assessed by quantifying endothelial tube formation. Human umbilical vein endothelial cells (HUVECs) (Cell Applications Inc., San Diego, Calif.; Cat #200p-05n) between passages 2 to 6 were cultured in a standard medium. Cells (1×10^5 cells/well) were plated in 24-well plates (Fisher, Cat #930186) coated with Matrigel (Corning, Cat #356234), and incubated for 30 minutes to allow cell attachment. Supernatants (150 μL/well) from control and stimulated IPTD-MSCs (DMOG, TNF-α, or DMOG+TNF-α) were added to obtain a total volume of 300 μL per well. Plates were then incubated at 37° C., 5% CO2 for 24 hours. At 4 and 24 hours, the wells were visualized using a Leica microscope and representative photographic images were obtained. Total endothelial tube number and tube length were determined using ImageJ software (NIH, Bethesda, Md.).

For assay [5], the system named is human islets. The experiment in a line: mRNA levels in human islets treated with DMOG. It counts as cell-based. The following applies: DMOG 1 mM. On the procedure:
(§2) Islets of high and low purity, and mesenchymal stem cells (MSCs) as a potential source of human islets, isolated from human donor pancreata were treated with the PHD inhibitor DMOG. Alterations in gene expression, cell proliferation, survival and metabolism were characterized.
(§3) As shown in FIGS. 10-12, pancreatic-derived human islets and MSCs were treated with DMOG or control at several concentrations and time intervals. The levels of HIF-1a were increased and PHD decreased in DMOG-treated versus control cells, and in a dose-dependent manner.

Assay [6] relates to pancreatic ductal cells. The experiment in a line: mRNA levels in pancreatic ductal cells treated with DMOG. It counts as cell-based, human. The following applies: DMOG 1 mM, one donor. On the procedure: One donor was tested. The data are expressed as mean±SD.
For assay [7], the system named is pancreatic-derived human islets and MSCs. The experiment in a line: HIF-1a, PHD and survival gene levels in DMOG-treated islets and MSCs. Type of assay: cell-based. Here is the method:
as §2, §3

The test system is the same in assay [8]. Put plainly: Cytokine injury and proliferative capacity of DMOG-treated islets and MSCs in vitro. Type of assay: cell-based. Here is the method:
as §2, §3

Assay [9] relates to diabetic mice. Put plainly: Engraftment of DMOG-treated islets in diabetic mice. It counts as in vivo.
In assay [10] the test system is human islets and MSC. Put plainly: Protection of human islets and MSC from hypoxia. It counts as cell-based.
From the text: as §1

Where [11] appears, read: culture medium after 24 hours, compared to control.
The mark [12] stands for this setting: DMOG-treated versus control cells, dose-dependent.

Regarding `COC(=O)CNC(=O)C(=O)OC` [DMOG, dimethyloxalylglycine], the VEGF upregulated in [1] (IPTD-MSCs and islet cells) came out at 51 fold. Besides, in assay [1] (IPTD-MSCs and islet cells for DMOG, MSC for TNF-α plus DMOG), the TSG6 upregulated is given as 31 fold. In [2], the NRF2 expression result is reported as “significantly increased” and the VEGF expression result was “significantly increased”. Also, the “Levels of MCP-1” value in assay [3] (conditioned media after 24 hours) was “reduced”. In [3] (setting [11]), the “secretion of IL-4” value was “enhanced the secretion”, the “secretion of IL-6” value is reported as “enhanced the secretion”, the “secretion of IL-8” value is on record as “enhanced the secretion” and the “secretion of VEGF” value is “enhanced the secretion”. In [4], the “numbers of cell tubes” value came to 21.0±2.0 and the tube length is 28.6±9.9 mm. Besides, the “mRNA levels of VEGF gene” value in assay [5] (human islets Fr 1, purity >70%) is on record as “increased mRNA levels”. Besides, in [5] (human islets Fr 2, purity <50%), the “mRNA levels of EPO gene” value is on record as “increased mRNA levels”, the “mRNA levels of INS gene” value is listed as “increased mRNA levels”, the “mRNA levels of PDX1 gene” value is “increased mRNA levels” and the “mRNA levels of TSG-6 gene” value was “increased mRNA levels”. Moreover, the “mRNA levels of VEGF gene” value in assay [5] (human islets Fr 2, purity <50%) is “increased mRNA levels”. Further, in [6], the “mRNA levels of TSG-6 gene” value is listed as “increased mRNA levels” and the “mRNA levels of VEGF gene” value is “increased mRNA levels”. The “key survival genes (EPO, glycolytic enzyme, Glut-1, VEGF)” value in assay [7] (DMOG treatment of islets and MSCs) was “upregulation”. Moreover, in [7] (setting [12]), the “levels of HIF-1a” value was “increased” and the “levels of PHD” value was “decreased”. In addition, in assay [8], the proliferative capacity result is “higher proliferative capacity” and the “susceptibility to cytokine injury” value is recorded as “less susceptible”. Further, in [9], the engraftment result is on record as “increased engraftment” and the glucose homeostasis entry is “improved glucose homeostasis”. For the same compound, in assay [10], the protection from hypoxia result was “protected”.

Take TNF-α: the “TSG-6 gene expression levels” value in [2] was “significantly increased”. Besides, the “effect on any of the cytokines examined” value in assay [3] (culture medium after 24 hours, compared to controls) is given as “did not have an effect”. In addition, in assay [4], the “numbers of cell tubes” value is on record as “no effect” and the tube length entry is listed as “no effect”.

For the origin of these results see patent US20210130789A1, “METHODS OF STROMAL CELL EXPANSION, USES AND MATERIALS RELATED THERETO” (CITY OF HOPE, priority 2019, published 2021).
